Patent US8183373B2, “Solid state forms of sitagliptin salts” (Teva Pharmaceutical Industries Ltd., priority 2010, dated 2012)
Where a name gives a salt, the structure may show the parent alone.

Legend:
Assay type in all cases: physicochemical
[1] = Solubility of Form S14 in aqueous media at 37° C.; settings: for solubility: thermodynamic from solid, read-out: Concentration (solubility)
Method: (§1) Solubility was tested by addition of portions of […] solution to 25 mg of STG salt and stirring it at 37° C. for 1-2 minutes till dissolved. Form S14 was also found to be chemically and polymorphically stable.

[2] = Stability test in 0-100% relative humidity cells, 7 days, room temperature (XRPD and TGA); settings: for Polymorphically stable up to (relative humidity): 7 days at room temperature; for Equilibrium amount of water: from TGA of the humidity test
Method: A sample of form S14 was equilibrated in 0-100% relative humidity cells for 7 days at room temperature. The samples were analyzed by XRPD and TGA. […] 10-15 mg samples were placed into 150 μL alumina crucibles and scanned between 25-250° C. at 10°/minute heating rate under 40 ml/minute N2 flow rate. For XRPD the ARL instrument was used. A sample of form S16 was equilibrated in 0-100% relative humidity cells for 7 days at room temperature. The samples were analyzed by XRPD and TGA. […] 10-15 mg samples were placed into 150 μL alumina crucibles and scanned between 25-250° C. at 10°/minute heating rate under 40 ml/minute N2 flow rate. For XRPD the ARL instrument was used.

[3] = Chemical and polymorphic storage stability of Form S14; settings: six months at 25° C.
Method: as §1

[4] = Storage of a crystalline form under controlled relative humidity, form determined by powder XRD
Method: About 100 mg of Sitagliptin L-malate form I1 was put in an open yellow plastic cap, and kept at 100% relative humidity (RH) and room temperature for 6 days. It was then analyzed by powder XRD, and found to have transformed into form I2.
About 150 mg of Sitagliptin sulfate form S2 was put in an open Petri dish, and kept at 100±5% RH and room temperature for 12 days. It was then analyzed by powder XRD, and found to have transformed into form S9.
About 150 mg of Sitagliptin sulfate form S6 was put in an open Petri dish, and kept at 100±5% RH and room temperature for 12 days. It was then analyzed by powder XRD, and found to have transformed into form S9.
About 150 mg of Sitagliptin sulfate form S14 was stored under 80% RH at 25° C. for 7 days. The sample was then tested by XRPD and determined to be crystal form Si of Sitagliptin sulfate.
About 150 mg of Sitagliptin sulfate form S14 was stored under 100% RH at 25° C. for 7 days.
About 150 mg of Sitagliptin sulfate form S14 was stored under 70% RH at 25° C. for 7 days. The sample was then tested by XRPD and determined to be crystal form S1 of Sitagliptin sulfate.
About 150 mg of Sitagliptin sulfate form S14 was stored under 60% RH at 40° C. for 3 days. The sample was then tested by XRPD and determined to be crystal form S1 of Sitagliptin sulfate.

[5] = Water solubility of Form S16 (European Pharmacopoeia classification)
[6] = 0% RH, 7 days, room temperature
[7] = 20% RH, 7 days, room temperature
[8] = 40% RH, 7 days, room temperature
[9] = 60% RH, 7 days, room temperature
[10] = 80% RH, 7 days, room temperature
[11] = 100% RH, 7 days, room temperature

Row | SMILES | Hygroscopicity [2] | % weight loss (TGA) [2, 6] [%] | % weight loss (TGA) [2, 7] [%] | % weight loss (TGA) [2, 8] [%] | % weight loss (TGA) [2, 9] [%] | % weight loss (TGA) [2, 10] [%] | % weight loss (TGA) [2, 11] [%] | Polymorphically stable up to (relative humidity) [2] | % weight loss (TGA) ([2]; Before the experiment) [%] | Equilibrium amount of water [2] | also measured
1 | N[C@@H](CC(=O)N1CCn2c(nnc2C(F)(F)F)C1)Cc1cc(F)c(F)cc1F [Form S14, Sitagliptin sulfate] | hygroscopic | 2.3 | 2.0 | 1.9 | 2.4 | 4.4 | 8.9 | up to 60 % RH | 3.4 | about 2% | solubility ([1]; aqueous medium, aqueous buffer, pH 4.5 37° C.): 500 mg/mL; solubility ([1]; aqueous medium, aqueous buffer, pH 6.8 37° C.): 330 mg/mL; solubility ([1]; aqueous medium, aqueous buffer, pH 7.8 37° C.): 300 mg/mL; solubility ([1]; aqueous medium, simulated gastric fluid, pH 1.2, 37° C.): 500 mg/mL; Solubility in different aqueous media ([1]; different aqueous media): highly soluble; solubility ([1]; Water 37° C.): 300 mg/mL; Chemical and polymorphic stability [3]: No degradation or polymorphic transformation; Form after storage (XRPD) ([4]; 80% RH at 25° C. for 7 days): Si; Form after storage (XRPD) ([4]; 100% RH at 25° C. for 7 days): polymorphic mixture of form S1 and form S11
2 | N[C@@H](CC(=O)N1CCn2c(nnc2C(F)(F)F)C1)Cc1cc(F)c(F)cc1F [Form S16, Sitagliptin sulfate] | low hygroscopicity | 2.9 | 2.9 | 2.9 | 2.9 | 4.4 | 8.9 | up to 60 % RH | 3.0 | about 2.9% | Solubility classification ([5]; classification of the European Pharmacopoeia Commission 01/2008:5110): freely soluble; solubility ([5]; in 1 mL of water, read-out: Amount soluble in 1 mL of water): ≥ 100 mg/mL; Constant water content ([2]; corresponds to the sesquihydrate): 2.9%
